Results reported in a melting point compilation (Tetko et al.; mined from patent text by program, amines drawn as free bases though some values may be those of a salt).

SMILES	melting point [°C]
COc1cc(OC)nc(Oc2cccc3cc(C)oc(=O)c23)n1	188 to 190
O=C(Nc1c(C(O)(C(F)(F)F)C(F)(F)F)ccc2ccccc12)c1ccco1	228 to 229
CN1CCN(c2cnc3cc(Cl)ccc3n2)CC1	151 to 152
Cc1cc(C(=O)Nc2cccc(Oc3ccc4nc(NC(=O)CN(C)C)cn4n3)c2)n(C)n1	210
CCCCc1nc(=O)c2cc(I)ccc2[nH]1	258 to 260
CC(=NOCCO)c1cn(C)c(-c2ccccc2)n1	133 to 135
CC(C)n1nc(-c2cc(C(=O)N3CCN(C)CC3)cnc2-c2ccccc2)ccc1=O	165 to 166
CCCCC(=O)c1sc(Oc2ccc3c(c2)OCO3)c2c1CCc1cnn(C)c1-2	101 to 102
CC(C(=O)O)c1ccc2c(=O)c3ccccc3ccc2c1 (stereo unspecified)	108 to 110
CCN(CC)CCOc1ccc(-c2nnc(CSCCOc3ccccc3)o2)cc1	32 to 35
COC(=O)c1cc(N)cc(-n2cccc2)c1	116 to 118
O=C(c1ccc(F)cc1)C1CCN(CCCC2CCc3onc(-c4ccc(Cl)cc4)c3C2O)CC1 (stereo unspecified)	152 to 155
O=C(CCl)Nc1ccc2c(c1NC(=O)c1cccc(Cl)c1)C(=O)c1ccccc1C2=O	188 to 189
Nc1nc2c(c(N3CCNCC3)n1)SCCC2	176 to 178
O=c1ccc2nc3ccccc3sc-2c1	157 to 159
O=C(Nc1ccc(N2CCN(Cc3ccccc3)CC2)cc1)c1ccccc1-c1ccccc1	162
Cc1[nH]c(=O)c2c(ccc3nc(Nc4c(Cl)cccc4Cl)n(C)c32)c1CCN1CCOCC1	285 to 290
c1ccc(NC2(c3ccccc3)N=C(c3ccccc3)N=C2c2ccccc2)cc1 (stereo unspecified)	157
N#Cc1ccc2c(c1)c(C1CCC3(CC1)OCCO3)cn2Cc1ccccc1	129 to 130
CCOc1ccc(C(=O)NCc2ccc3c(c2)CN(C2CCC(=O)NC2=O)C3=O)cc1 (stereo unspecified)	269 to 271
Cc1cccc(-c2n[nH]cc2-c2ccc(F)c(-c3ccc(S(=O)(=O)C(F)(F)F)cc3)c2)n1	81 to 84

SMILES	melting point [°C]
COC(=O)CCc1cc2cc(C(F)(F)F)ccc2[nH]1	106 to 108
Cc1cn2ccccc2c1S(=O)(=O)c1ccc(O)cc1	177
O=C1Nc2ccc(C(F)(F)F)cc2C1c1ncnc2nn(C3CCCCC3)cc12 (stereo unspecified)	> 300
C=C(C)C(=O)OCCCOc1ccc(-c2cc(OC(=O)C(=C)C)cc(-c3ccc(OCCOC(=O)C(=C)C)cc3)c2)cc1F	70
Cc1cc(F)ccc1-c1nc(N[C@H]2CC[C@H](O)CC2)nc2c1ccc(=O)n2-c1c(F)cccc1F	158 to 160
COc1ccc(C(=O)C2=C(c3ccc(OC)cc3)CCc3cc(OC)ccc32)cc1	172 to 173
CC(Br)C(Br)C(=O)NC(=O)Nc1ccc(Cl)c(Cl)c1 (stereo unspecified)	196 to 197
CC(CN1CC=C(c2ccc(Cl)cc2)CC1)C(O)c1ccc(Cl)cc1 (stereo unspecified)	110 to 112
COC(=O)c1ccc(S(C)(=O)=O)c(C(=O)NC(C)(C)CO)c1Cl	70 to 72
CCOC(=O)/C=C/c1ccc(Cl)c(Cl)n1	102 to 103
CN1Cc2c(n(-c3ccc(F)cc3)c3ccc(F)cc23)C1	160 to 165
N#Cc1c(N2CCN(C(=O)c3cccs3)CC2)c2cc(Cl)ccc2n(Cc2ccc(F)cc2)c1=O	253
N#CNC(=NCC(O)c1cccc(O)c1)NCCSCc1csc(NC(=N)N)n1 (stereo unspecified)	162 to 164
CNC(=O)C(=NOC)c1c(F)cccc1COc1ccccc1C	93
Nc1nnc(N2CCN(CCOc3ccccc3)CC2)[nH]1	131 to 133
COc1cc(Nc2c(C#N)cnc3cc(-c4ccc(CCl)cc4)ccc23)c(Cl)cc1Cl	236 to 239
COC(=O)COc1cc2c(c3c1c(C(=O)C(N)=O)c(C)n3Cc1cccc(F)c1)CCC2	142 to 144
O=[N+]([O-])c1c(F)cc(Cl)c2nc(Cl)sc12	110 to 112
CC(=O)CCc1cc(OC(C)=O)c(C(C)(C)C)cc1OC(C)=O	66.5 to 68
CN(C)CCCSc1ccc2ccc(N)nc2n1	164
OCc1cc(Cl)c(N=C2NCCN2)c(Cl)c1	208 to 210

SMILES	melting point [°C]
O=c1[nH]c(COc2cccc(Cl)c2Cl)nc2nccnc12	219 to 220
COc1cc2c(cc1O)/C(=N/OCc1ccc([N+](=O)[O-])cc1)CC2	146 to 149
Cc1cc(C)cc(C(=O)Cc2ccnc(NC(=O)OC(C)(C)C)c2)c1	133 to 136
Cc1cc(C)n(Cc2ccccc2Cl)c(=O)c1C#N	243 to 245
Cn1c(-c2ccccc2)c(C=O)c2ccc(Cl)cc2c1=O	172 to 173
OC1CSC(Oc2cccnc2Br)C(O)C1O (stereo unspecified)	151
O[C@H]1CC[C@H](Nc2nccc(-c3c[nH]c4ccccc34)n2)CC1	258 to 260
Nc1cccc(-c2ccc(CCNCc3cccc(Cl)c3)c3ccccc23)n1	60 to 75
CCOC(=O)C(=O)Nc1ccc(S(N)(=O)=O)cc1[N+](=O)[O-]	193 to 195
COc1cccc(C(=O)Nc2nnn[nH]2)c1[N+](=O)[O-]	271
Cn1cncc1C(O)(c1ccc(Cl)cc1)c1ccc2[nH]c(=O)cc(-c3cccnc3)c2c1 (stereo unspecified)	> 250
CN1C(O)=C(C(=O)Nc2ccccc2Cl)c2cscc2S1(=O)=O	152 to 155
O=C(CCl)Nc1cccc(NC(=O)Nc2ccc(N(CCCl)CCCl)cc2)c1	232 to 233
CCOC(=O)c1scc2c1ccc1cn[nH]c12	124 to 125
CC1(C)C(=O)N(C(=O)NCC2CCN(CC3(C(=O)O)CCC3)CC2)c2cc(F)ccc21	193
C=CCN(C(C)c1ccccc1)S(=O)(=O)c1ccc(O)cc1 (stereo unspecified)	128 to 129
Nc1ccccc1C(O)c1cc(C(F)(F)F)nc2c(C(F)(F)F)cccc12 (stereo unspecified)	146
COCCOc1cc(N)c(Cl)cc1C(=O)OC	121 to 122
COC(=O)Nc1ccc(OC)c(OC)c1	83 to 87

Second part, the compound after the results:

melting point [°C]	SMILES
192	CCN(CC)CCc1c(C)[nH]c(C=C2C(=O)[NH+]([O-])N=C2c2cnccn2)c1C (stereo unspecified)
116 to 117	COC1=C(OC)C(=O)c2c(N)cccc2C1=O
185 to 187	CCN(C)C(=O)c1cnn(-c2cccc(C#N)c2)c1C#N
226 to 228	Cc1ccc(-c2ccc(C(=O)Nc3ccc4cc(CN5CCCC5)cnc4c3)cn2)cc1
193 to 194	O=c1[nH]nc(Cc2ccncc2)c2c1CCCC2
141 to 142	Cc1cc(-c2c(-c3ccc(F)cc3)ncn2CC2CC2)ccn1
163	CC(Nc1ccc(F)c(F)c1)C(=O)O (stereo unspecified)
227 to 228	O=c1cc(Oc2ccc([N+](=O)[O-])cc2)cc[nH]1
213 to 215	O=C(O)C1=C(Sc2ccccc2)CC2CC(=O)C12 (stereo unspecified)
267 to 269	COc1ccc(-c2ccc3cc(C(=O)O)ccc3c2)cc1
167 to 168	CSc1ccc(-n2cnc3ccc(-c4nnc(CCc5cccc(C(F)(F)F)c5)o4)cc32)cc1
327 to 329	NC(=O)CCn1c2ccc(O)cc2c2c3c(c(-c4c(Cl)cccc4Cl)cc21)C(=O)NC3=O
153 to 156	O=C1OC(O)c2c1cccc2[N+](=O)[O-] (stereo unspecified)
172 to 174	O=C(Nc1ccc(F)c(NC(=S)Nc2cccc(C(F)(F)F)c2)c1)c1ccc(Cl)c(Cl)c1
147	OCC1OC(n2cnc3c(NCc4ccccc4)nc(Cl)nc32)CC1O (stereo unspecified)
163 to 165	CC(C)(C)C1CCc2c(c3ccccc3n2CC[N+]2([O-])CCCC2)C1 (stereo unspecified)
202 to 203	CCC1NC(=O)N(C)C(=O)N1
135 to 136	O=CNC(CC(=O)O)c1ccccc1 (stereo unspecified)
119 to 120	CCCCCN1CCN(c2cccc3c2C[C@H](NC(C)=O)CC3)CC1
97 to 102	CC(C)(C)OC(=O)N1CCC2(CC1)CC(c1ncccc1Cl)=NO2

melting point [°C]	SMILES
154	COc1ccc(Oc2ccc(C(=O)N(C3CCCCC3)C3CCCC3)cc2)cc1OC
122 to 123	C=CC(=O)NC[C@H](O)[C@@H](O)[C@H](O)[C@H](O)CO
205 to 207	COc1ccc(N2CCOCC2)c2sc(-c3nc4c([nH]3)CCN(C(=O)c3ccc(F)cc3)CC4)nc12
167 to 170	C=Cc1cc(CNC(=O)Nc2ccc(C(C)(C)C)cc2)cc(F)c1NS(C)(=O)=O
126 to 127	OC(C=CCN1CCC(O)(c2ccc(Cl)cc2)CC1)c1ccc(F)cc1 (stereo unspecified)
102 to 106	COc1ccccc1Oc1c(NS(=O)(=O)c2ccc(C(C)(C)C)cc2)nc(NCCN(C)C)nc1OCCO
165 to 167	C=Cc1cc(CNC(=O)NCc2ccc(C(C)(C)C)cc2)cc(Cl)c1NS(C)(=O)=O
120 to 122	CC(C)CC=CC(C)C1CCC2C3=CC=C4CC(O)CCC4(C)C3CCC21C (stereo unspecified)
134 to 135	CCOC(=O)CNC(=O)[C@@H]1CS[C@H](c2ccccc2O)N1C(=O)CCSC(=O)c1ccccc1
124 to 125	Cc1oc(-c2cccc(CCc3ccccc3)c2)nc1CCOc1ccc(OC(C)(C)C(=O)O)cc1
78 to 81	CCCCCCC(=O)C=Cc1ccc(OCc2ccccc2)c(OC)c1
70.5	C=CCc1cc(Br)ccc1OCC(=O)OCC
275	Cc1c(O)ccc2c(=O)c(-c3ccc(Cl)cc3)coc12
156 to 158	CN(C)c1nc(N2CCOCC2)nc(-n2ccnc2)n1
136	O=C(O)CCC(=O)c1ccc(F)c([N+](=O)[O-])c1
190 to 192	O=c1cc(-c2ccncc2)nc2n1CCC(c1ccncc1)N2CC(O)c1cccc(Br)c1 (stereo unspecified)
110 to 115	Cc1c(C)n(CC=CCl)c2c(OCc3ccc(F)cc3)nncc12
160 to 163	NC(=O)Cc1nnc(S)o1
202 to 203	CN(C)c1cnn(C)c(=O)c1-c1ccccc1C=NO
100 to 102	COC(=O)c1ccnc(N2CCN(Cc3ccccn3)C2=O)c1
